Test results taken from patent US20110034418A1, “PHARMACEUTICAL COMPOSITION WITH BISPHOSPHONATE” (priority 2008, published 2011).
pIC50: −log10 of the molar value.

Biological target: T1, Human farnesyl pyrophosphate synthase (FPPS, Swissprot ID: P14324) (Homo sapiens, UniProt P14324)
T1 construct: made in house
T1 sequence (P14324 67-419 limits assumed): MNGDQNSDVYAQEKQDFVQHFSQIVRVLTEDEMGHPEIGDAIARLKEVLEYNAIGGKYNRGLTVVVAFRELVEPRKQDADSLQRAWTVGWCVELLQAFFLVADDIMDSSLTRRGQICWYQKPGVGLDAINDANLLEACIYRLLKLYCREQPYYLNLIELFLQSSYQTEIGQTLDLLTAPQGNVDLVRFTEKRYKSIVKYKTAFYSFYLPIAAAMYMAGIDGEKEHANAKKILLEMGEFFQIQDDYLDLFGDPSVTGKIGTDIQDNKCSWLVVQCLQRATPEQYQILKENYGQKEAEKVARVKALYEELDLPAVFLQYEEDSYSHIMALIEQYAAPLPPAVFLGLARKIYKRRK
Assay: label-free LC/MS/MS assay for farnesyl pyrophosphate synthase (FPPS), cell-free in vitro
Assay type: biochemical
Conditions: 5 min pre-incubation, GPP/IPP substrates, FPP quantified by LC/MS/MS
Protocol: For example, in a cell-free in vitro assay the superiority of compounds of the formula I over compounds already known can be shown. Briefly, the reaction proceeds in the presence of enzyme and an inhibitor of the formula I, and the reaction product (farneysyl pyrophosphate) is quantified by LC/MS/MS.
In detail, the inhibitor and enzyme are pre-incubated before adding the substrates
The assay is a label-free assay for farnesyl pyrophosphate synthase (FPPS) based on LC/MS/MS. This method quantifies in-vitro untagged farnesyl pyrophosphate (FPP) and is suitable for high throughput screening (HTS) to find inhibitors of FPPS and for the determinations of IC50 values of candidate compounds. The analysis time is 2.0 minutes with a total cycle time of 2.5 minutes. The analysis can be formatted for 384-well plates resulting in an analysis time of 16 hours per plate.
Pentanol, methanol, and isopropyl alcohol are HPLC grade and obtained from Fisher Scientific. DMIPA is from Sigma-Aldrich. Water is from an in-house Milli-Q system. […]
The Multiple Reaction Monitoring (MRM) transitions monitored are 381−>79− for FPP and 397−>159− for FSPP at a collision energy of 22 eV and a collision cell pressure of 2.1×10^−3 mbar of Ar. […]
The total cycle time per sample is 2.5 minutes. Since the analysis is formatted for 384-well plates, a plate is analyzed in 16 hours. […]

pIC50: 8.51 to 8.62
SMILES: CCc1cncn1CC(O)(P(=O)(O)O)P(=O)(O)O [Reference-Example 2, [2-(5-Ethyl-imidazol-1-yl)-1-hydroxy-1-phosphono-ethyl]-phosphonic acid]
